{"source": "ChEMBL document CHEMBL1201862", "about": "“PubChem BioAssay data set” (2004)", "key": {"Escherichia coli": {"system": "Escherichia coli", "assay": "microbe, parasite or virus in culture"}, "[1]": {"molecular_target": "T1, Peroxisome proliferator-activated receptor gamma/Nuclear receptor coactivator 2 (Homo sapiens, UniProt P37231)", "assay": "(§1) TR-FRET dose response biochemical High Throughput Screening assay for agonists of the steroid receptor coactivator 2 (SRC-2) recruitment by the peroxisome proliferator-activated receptor gamma (PPAR gamma): non-selective agonists. [Related pubchem assays: 1297, 1032 ]", "type": "functional"}, "[2]": {"molecular_target": "T2, Peroxisome proliferator-activated receptor gamma/Nuclear receptor coactivator 1 (Homo sapiens, UniProt P37231)", "T2 sequence (P37231 whole entry)": "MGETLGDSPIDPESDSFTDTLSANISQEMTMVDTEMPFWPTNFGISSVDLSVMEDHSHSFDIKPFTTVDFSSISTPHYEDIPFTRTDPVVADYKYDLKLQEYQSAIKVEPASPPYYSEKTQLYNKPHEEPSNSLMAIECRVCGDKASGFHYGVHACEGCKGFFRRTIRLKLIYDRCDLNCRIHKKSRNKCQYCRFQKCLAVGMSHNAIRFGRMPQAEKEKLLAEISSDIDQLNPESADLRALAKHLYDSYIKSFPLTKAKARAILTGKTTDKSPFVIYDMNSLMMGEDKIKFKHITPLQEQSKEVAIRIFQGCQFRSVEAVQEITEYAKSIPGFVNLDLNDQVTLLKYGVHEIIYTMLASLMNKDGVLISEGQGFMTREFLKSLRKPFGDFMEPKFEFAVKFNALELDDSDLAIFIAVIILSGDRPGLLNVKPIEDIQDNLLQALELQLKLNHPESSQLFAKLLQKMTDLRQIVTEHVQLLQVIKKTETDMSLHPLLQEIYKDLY", "T2 sequence (Q15788 whole entry, further chain)": "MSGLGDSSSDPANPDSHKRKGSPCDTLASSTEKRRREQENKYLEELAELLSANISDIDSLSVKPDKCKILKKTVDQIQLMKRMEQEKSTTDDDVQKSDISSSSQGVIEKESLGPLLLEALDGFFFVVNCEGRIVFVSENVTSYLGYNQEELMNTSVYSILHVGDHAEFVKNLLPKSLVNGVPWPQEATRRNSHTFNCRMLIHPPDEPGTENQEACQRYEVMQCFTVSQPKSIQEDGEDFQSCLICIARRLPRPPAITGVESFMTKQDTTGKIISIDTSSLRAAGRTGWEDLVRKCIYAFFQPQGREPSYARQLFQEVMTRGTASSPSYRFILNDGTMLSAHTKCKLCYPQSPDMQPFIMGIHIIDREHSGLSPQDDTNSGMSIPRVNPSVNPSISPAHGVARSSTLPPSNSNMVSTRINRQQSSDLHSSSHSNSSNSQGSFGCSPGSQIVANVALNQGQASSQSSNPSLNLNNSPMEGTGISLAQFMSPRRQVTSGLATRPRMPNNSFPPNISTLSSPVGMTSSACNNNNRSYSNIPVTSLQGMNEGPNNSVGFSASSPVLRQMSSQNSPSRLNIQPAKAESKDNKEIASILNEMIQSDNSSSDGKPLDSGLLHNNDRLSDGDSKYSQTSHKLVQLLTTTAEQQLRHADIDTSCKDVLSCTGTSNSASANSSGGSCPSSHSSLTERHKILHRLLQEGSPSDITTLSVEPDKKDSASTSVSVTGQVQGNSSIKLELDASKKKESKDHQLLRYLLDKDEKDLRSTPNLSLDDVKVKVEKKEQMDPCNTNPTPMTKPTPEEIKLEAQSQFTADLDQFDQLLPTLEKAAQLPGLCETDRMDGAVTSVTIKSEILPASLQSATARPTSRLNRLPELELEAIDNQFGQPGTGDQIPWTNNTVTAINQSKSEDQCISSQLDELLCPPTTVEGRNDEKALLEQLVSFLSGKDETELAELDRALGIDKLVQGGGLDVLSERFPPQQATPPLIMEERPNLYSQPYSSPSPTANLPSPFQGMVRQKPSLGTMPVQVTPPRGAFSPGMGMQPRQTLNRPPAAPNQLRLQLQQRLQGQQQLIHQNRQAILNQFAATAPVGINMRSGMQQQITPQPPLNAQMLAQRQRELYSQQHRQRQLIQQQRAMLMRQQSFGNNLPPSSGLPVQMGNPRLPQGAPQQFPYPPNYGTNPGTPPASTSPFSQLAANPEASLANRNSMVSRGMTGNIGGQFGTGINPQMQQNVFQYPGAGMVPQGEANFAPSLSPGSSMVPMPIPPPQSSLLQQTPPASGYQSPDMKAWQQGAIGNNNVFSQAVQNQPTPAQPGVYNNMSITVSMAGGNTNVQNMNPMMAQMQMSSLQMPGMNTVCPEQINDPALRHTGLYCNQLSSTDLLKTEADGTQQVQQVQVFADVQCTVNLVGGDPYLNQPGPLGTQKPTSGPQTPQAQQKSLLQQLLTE", "assay": "as §1, with “1 (SRC-1)” for “2 (SRC-2)”, “assays (depositor defined):AID1300, AID1808, AID504735, AID631]” for “assays: 1297, 1032 ]”", "type": "protein assay"}, "[3]": {"molecular_target": "T3, Peroxisome proliferator-activated receptor gamma/Nuclear receptor coactivator 3 (Homo sapiens, UniProt P37231)", "T3 sequence (P37231 whole entry)": "as the sequence (P37231 whole entry) above", "T3 sequence (Q9Y6Q9 whole entry, further chain)": "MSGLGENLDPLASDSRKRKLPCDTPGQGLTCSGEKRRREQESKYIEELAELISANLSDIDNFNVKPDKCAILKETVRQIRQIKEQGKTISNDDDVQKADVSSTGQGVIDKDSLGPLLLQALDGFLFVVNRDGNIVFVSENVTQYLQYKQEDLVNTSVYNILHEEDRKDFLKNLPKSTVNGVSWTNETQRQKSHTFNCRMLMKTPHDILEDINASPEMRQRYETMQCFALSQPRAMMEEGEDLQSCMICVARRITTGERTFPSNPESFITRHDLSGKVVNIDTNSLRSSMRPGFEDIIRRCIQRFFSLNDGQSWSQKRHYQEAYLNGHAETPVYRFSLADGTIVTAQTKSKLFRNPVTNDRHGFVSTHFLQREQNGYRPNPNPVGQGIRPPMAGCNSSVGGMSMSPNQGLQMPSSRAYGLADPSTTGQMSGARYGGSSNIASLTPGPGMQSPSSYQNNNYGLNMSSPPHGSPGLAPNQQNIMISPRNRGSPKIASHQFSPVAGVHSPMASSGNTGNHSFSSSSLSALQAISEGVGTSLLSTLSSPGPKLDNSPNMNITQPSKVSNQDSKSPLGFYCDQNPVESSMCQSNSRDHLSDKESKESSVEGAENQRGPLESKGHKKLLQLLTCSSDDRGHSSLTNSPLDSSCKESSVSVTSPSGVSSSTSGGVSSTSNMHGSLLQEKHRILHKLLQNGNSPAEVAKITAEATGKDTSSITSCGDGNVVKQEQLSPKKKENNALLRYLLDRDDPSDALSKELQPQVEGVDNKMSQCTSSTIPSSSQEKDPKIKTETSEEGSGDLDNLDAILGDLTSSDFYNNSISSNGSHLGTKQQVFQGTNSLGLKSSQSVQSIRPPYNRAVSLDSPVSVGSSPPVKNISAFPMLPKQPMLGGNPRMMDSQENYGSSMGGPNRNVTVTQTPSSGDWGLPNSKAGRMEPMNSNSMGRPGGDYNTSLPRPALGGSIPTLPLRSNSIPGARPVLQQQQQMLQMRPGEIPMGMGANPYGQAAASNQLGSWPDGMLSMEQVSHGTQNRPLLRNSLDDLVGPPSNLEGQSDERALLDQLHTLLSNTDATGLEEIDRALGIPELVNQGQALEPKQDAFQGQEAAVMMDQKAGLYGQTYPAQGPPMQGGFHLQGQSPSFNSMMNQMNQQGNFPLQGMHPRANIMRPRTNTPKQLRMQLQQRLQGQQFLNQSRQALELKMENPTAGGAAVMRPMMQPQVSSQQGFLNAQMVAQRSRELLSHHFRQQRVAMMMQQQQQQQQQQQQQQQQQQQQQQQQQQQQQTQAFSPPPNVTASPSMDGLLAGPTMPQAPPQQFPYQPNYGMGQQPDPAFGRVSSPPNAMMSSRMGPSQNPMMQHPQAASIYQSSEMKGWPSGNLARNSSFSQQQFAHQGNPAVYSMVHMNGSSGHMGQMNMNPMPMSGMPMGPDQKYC", "assay": "as §1, with “3 (SRC-3)” for “2 (SRC-2)”, “1301 (Confirmation screen.), 1048 (Primary screen.)]” for “1297, 1032 ]”", "type": "functional"}, "[4]": {"molecular_target": "T4, Ubiquitin-conjugating enzyme E2 N (Homo sapiens, UniProt P61088)", "T4 sequence (P61088 whole entry)": "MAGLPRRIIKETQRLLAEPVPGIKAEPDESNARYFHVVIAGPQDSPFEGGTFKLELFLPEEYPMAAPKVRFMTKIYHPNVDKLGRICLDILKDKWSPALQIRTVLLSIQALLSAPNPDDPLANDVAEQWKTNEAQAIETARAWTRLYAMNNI", "type": "functional"}, "Bcl-2-related protein A1": {"molecular_target": "T5, Bcl-2-related protein A1 (Mus musculus, UniProt Q07440)", "T5 sequence (Q07440 whole entry)": "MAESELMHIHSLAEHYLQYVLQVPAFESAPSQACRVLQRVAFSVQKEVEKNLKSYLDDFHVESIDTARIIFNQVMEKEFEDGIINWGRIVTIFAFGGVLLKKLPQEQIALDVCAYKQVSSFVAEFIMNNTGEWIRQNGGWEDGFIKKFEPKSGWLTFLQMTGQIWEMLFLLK", "type": "functional"}, "[5]": {"molecular_target": "T4, Ubiquitin-conjugating enzyme E2 N", "type": "functional", "remark": "listed apart in the source"}, "[6]": {"molecular_target": "T2, Peroxisome proliferator-activated receptor gamma/Nuclear receptor coactivator 1", "type": "functional"}, "[7]": {"assay": "Trypanosoma cruzi growth suppression in host cells – NIH3T3 host cells, beta-gal luminescence, confirmation (AID 2044)", "type": "functional, cell-based"}, "[8]": {"molecular_target": "T1, Peroxisome proliferator-activated receptor gamma/Nuclear receptor coactivator 2", "type": "functional"}, "[9]": {"molecular_target": "T3, Peroxisome proliferator-activated receptor gamma/Nuclear receptor coactivator 3", "type": "functional"}, "[10]": {"assay": "NIH3T3 cell viability loss – ATP luminescence, mouse fibroblasts, counter-screen, dose response (AID 2010)", "type": "functional, cell-based"}, "[11]": {"assay": "HEK-293T viability loss after treatment – luminescence, T-cell screen hits, cytotoxicity control for TCR NF-kB inhibitor project, dose response (AID 489026)", "type": "functional, cell-based"}, "[12]": {"assay": "Luminescence Cell-Based Dose Confirmation HTS to Identify Activators of 5'UTR Stem-Loop Driven Alpha-Synuclein mRNA Translation in H4 Neuroglioblastoma Cells. [Related pubchem assays: 1829 (Project Summary), 1814 (Primary HTS)]", "type": "functional"}, "H4": {"system": "H4", "assay": "Luminescence Cell-Based Dose Response HTS to Identify Activators of 5'UTR Stem-Loop Driven Prion Protein mRNA Translation in H4 Neuroglioblastoma Cells. [Related pubchem assays: 1829 (Project Summary), 1814 (Primary HTS)]", "type": "functional", "conditions": "Homo sapiens"}, "[13]": {"assay": "HIV-1 Vif–A3G interaction blockers – biochemical, TR-FRET, GST-Vif 1-94, biotin-A3G peptide, dose response retest, primary screen (AID 1117319)", "type": "functional"}, "[14]": {"assay": "Luminescence Cell-Based Dose Response HTS to Identify Activators of Luciferase Translation or Activity in H4 […] Cells. [Related pubchem assays: 1829 (Project Summary), 1814 (Primary HTS)]", "type": "functional"}, "[15]": {"molecular_target": "Mitogen-activated protein kinase 10 (Homo sapiens, UniProt P53779)", "sequence (P53779 whole entry)": "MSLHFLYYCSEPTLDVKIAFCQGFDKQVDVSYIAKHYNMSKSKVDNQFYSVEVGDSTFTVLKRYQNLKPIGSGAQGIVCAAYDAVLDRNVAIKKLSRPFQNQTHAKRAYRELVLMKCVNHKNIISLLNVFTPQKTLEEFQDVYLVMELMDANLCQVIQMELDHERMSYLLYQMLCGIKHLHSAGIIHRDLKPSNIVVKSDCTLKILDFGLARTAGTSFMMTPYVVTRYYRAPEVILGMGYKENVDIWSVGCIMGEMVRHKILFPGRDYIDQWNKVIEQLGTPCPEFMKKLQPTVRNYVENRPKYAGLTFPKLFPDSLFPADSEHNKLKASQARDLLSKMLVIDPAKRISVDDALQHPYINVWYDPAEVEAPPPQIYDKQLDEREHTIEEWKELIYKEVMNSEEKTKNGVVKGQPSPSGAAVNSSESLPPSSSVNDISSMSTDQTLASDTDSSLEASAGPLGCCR", "assay": "Dose response biochemical screening assay for inhibitors of c-Jun N-Terminal Kinase 3 (JNK3). [Related pubchem assays: 746 ]"}}, "note": "Calls of active or inactive are those of the source."}
{"smiles": "CC(=O)c1ccc(NC(=O)CSc2nnc(C3CC3)n2C2CC2)cc1", "values": [{"measurement": "AC50", "setting": "Escherichia coli", "result": "109 µM (active)"}]}
{"smiles": "CCn1c(=O)cc(SCC(=O)Nc2ccc3c(c2)OCCO3)c2ccccc21", "values": [{"measurement": "EC50", "setting": "[1]", "result": "7.21 µM (active)"}, {"measurement": "EC50", "setting": "[2]", "result": "7.45 µM (active)"}, {"measurement": "EC50", "setting": "[3]", "result": "> 79.4 µM (not active)"}]}
{"smiles": "CCOC(=O)C1=C(COC(=O)c2ncc(Cl)c(Cl)c2Cl)NC(=O)NC1C", "note": "(configuration not stated)", "values": [{"measurement": "IC50", "setting": "[4]", "result": "7.88 µM (active)"}, {"measurement": "IC50", "setting": "Bcl-2-related protein A1", "result": "> 20 µM (inactive)"}, {"measurement": "IC50", "setting": "[5]", "result": "9.23 µM (active)"}]}
{"smiles": "c1ccc2c(c1)CC/C2=N/Nc1nc2ccccc2[nH]1", "values": [{"measurement": "EC50", "setting": "[6]", "result": "> 79.4 µM (not active)"}, {"measurement": "EC50", "setting": "[7]", "result": "2.6 µM (active)"}, {"measurement": "EC50", "setting": "[8]", "result": "> 79.4 µM (not active)"}, {"measurement": "EC50", "setting": "[9]", "result": "> 79.4 µM (not active)"}, {"measurement": "EC50", "setting": "[10]", "result": "> 30 µM (not active)"}]}
{"smiles": "C=CC[C@@H](CC/C=C/C=C/CC/C=C\\[C@@H]1CSC([C@@H]2C[C@@H]2C)=N1)OC", "values": [{"measurement": "IC50", "setting": "[11]", "result": "> 80 µM (inactive)"}]}
{"smiles": "Cc1ccc(-c2csc(NC(=O)Cc3cccs3)n2)cc1C", "values": [{"measurement": "EC50", "setting": "[12]", "result": "10.2 µM (active)"}, {"measurement": "EC50", "setting": "H4", "result": "15.1 µM (active)"}, {"measurement": "IC50", "setting": "[13]", "result": "> 100 µM (active)"}, {"measurement": "EC50", "setting": "[14]", "result": "28.7 µM (active)"}]}
{"smiles": "Cn1ncc2c(NCc3ccccc3)ncnc21", "values": [{"measurement": "IC50", "setting": "[15]", "result": "> 31 µM (not active)"}]}
{"smiles": "COc1ccccc1OCc1nc2ccccc2[nH]1", "values": [{"measurement": "EC50", "setting": "[6]", "result": "> 79.4 µM (not active)"}, {"measurement": "EC50", "setting": "[8]", "result": "> 79.4 µM (not active)"}, {"measurement": "EC50", "setting": "[9]", "result": "> 79.4 µM (not active)"}]}
{"smiles": "O=C(C1=C[C@@H](c2ccc(C(F)(F)F)cc2)C[C@@H](OCc2ccc(CO)cc2)O1)N1CCOCC1", "values": [{"measurement": "EC50", "setting": "[6]", "result": "> 79.4 µM (not active)"}, {"measurement": "EC50", "setting": "[8]", "result": "> 79.4 µM (not active)"}, {"measurement": "EC50", "setting": "[9]", "result": "> 79.4 µM (not active)"}]}
{"smiles": "Cn1c(=O)c2c(ncn2Cc2ccc(Cl)c(Cl)c2)n(C)c1=O", "values": [{"measurement": "IC50", "setting": "[4]", "result": "16.3 µM (active)"}, {"measurement": "IC50", "setting": "Bcl-2-related protein A1", "result": "> 20 µM (inactive)"}, {"measurement": "IC50", "setting": "[5]", "result": "7.05 µM (active)"}]}
